Results on 22 molecules are retold here after US9029377B2, “Platelet-activating factor receptor antagonists” (Merck Sharp & Dohme Corp., priority 2009, dated 2015).

For orientation: IC50 means the concentration at which inhibition is half-maximal. Higher therefore signals weaker potency in that assay.

Each structure is given as a SMILES string.

For this experiment, the target named is PAFR (Homo sapiens, UniProt P25105). Kind of experiment: PAF Binding Assay (PAFR binding).
Chain of PAFR (P25105 whole entry): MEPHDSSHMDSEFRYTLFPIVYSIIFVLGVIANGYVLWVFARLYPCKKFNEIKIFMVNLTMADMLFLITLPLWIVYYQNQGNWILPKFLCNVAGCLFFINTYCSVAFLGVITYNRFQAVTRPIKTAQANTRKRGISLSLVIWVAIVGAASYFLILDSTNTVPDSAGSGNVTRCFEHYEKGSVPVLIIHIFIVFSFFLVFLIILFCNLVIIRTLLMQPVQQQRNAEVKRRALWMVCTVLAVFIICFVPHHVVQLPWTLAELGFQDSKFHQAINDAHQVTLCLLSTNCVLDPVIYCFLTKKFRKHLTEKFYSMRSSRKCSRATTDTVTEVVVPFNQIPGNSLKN
For `O=S(=O)(N[C@H]1CCC[C@@H](n2cnnc2)C1)c1cc(-c2cccc3cnccc23)cc(C(F)(F)F)c1` [Compound 3Az, 3-isoquinolin-5-yl-N-[(1S,3R)-3-(4H-1,2,4-triazol-4-yl)cyclohexyl]-5-(trifluoromethyl)benzenesulfonamide], the IC50 was found to be 10 nM.

Turning to `CCc1cc(-c2cccnc2OCC(F)(F)F)cc(S(=O)(=O)N[C@H]2CCC[C@@H](n3cnnc3)C2)c1` [Compound 3Bam, 3-ethyl-N-[(1S,3R)-3-(4H-1,2,4-triazol-4-yl)cyclohexyl]-5-[2-(2,2,2-trifluoroethoxy)pyridin-3-yl]benzenesulfonamide], the IC50 was 9.5 nM.

Take `CCc1cc(-c2cnc3ccnn3c2)cc(S(=O)(=O)N[C@H]2CCC[C@@H](n3cnnc3)C2)c1` [Compound 3Bax, 3-ethyl-5-pyrazolo[1,5-a]pyrimidin-6-yl-N-[(1S,3R)-3-(4H-1,2,4-triazol-4-yl)cyclohexyl]benzenesulfonamide]: the IC50 amounted to 22 nM.

In turn, `CCc1cc(-c2ccc(OCC(F)(F)F)nn2)cc(S(=O)(=O)N[C@H]2CCC[C@@H](n3cnnc3)C2)c1` [Compound 3Bay, 3-ethyl-N-[(1S,3R)-3-(4H-1,2,4-triazol-4-yl)cyclohexyl]-5-[6-(2,2,2-trifluoroethoxy)pyridazin-3-yl]benzenesulfonamide] registered an IC50 of 5.7 nM.

For `CCc1cc(-c2ccnnc2)cc(S(=O)(=O)N[C@H]2CCC[C@@H](n3cnnc3)C2)c1` [Compound 3Baz, 3-ethyl-5-pyridazin-4-yl-N-[(1S,3R)-3-(4H-1,2,4-triazol-4-yl)cyclohexyl]benzenesulfonamide], the IC50 stood at 208 nM.

The molecule `CCc1cc(-c2cccc3cccnc23)cc(S(=O)(=O)N[C@H]2CCC[C@@H](n3cnnc3)C2)c1` [Compound 3Bd, 3-ethyl-5-quinolin-8-yl-N-[(1S,3R)-3-(4H-1,2,4-triazol-4-yl)cyclohexyl]benzenesulfonamide] came in with an IC50 of 0.9 nM.

The molecule `Cc1nncn1[C@H]1C[C@@H](NS(=O)(=O)c2cc(-c3cccc4cccnc34)cc(C(F)(F)F)c2)CC(F)(F)C1` [Compound 3Ca, N-[(1R,5S)-3,3-difluoro-5-(3-methyl-4H-1,2,4-triazol-4-yl)cyclohexyl]-3-quinolin-8-yl-5-(trifluoromethyl)benzenesulfonamide] registered an IC50 of 0.4 nM.

In turn, `O=S(=O)(N[C@@H]1C[C@H](n2cnnc2)CC(F)(F)C1)c1cc(-c2cccc3cccnc23)cc(C(F)(F)F)c1` [Compound 3Cd, N-[(1R,5S)-3,3-difluoro-5-(4H-1,2,4-triazol-4-yl)cyclohexyl]-3-quinolin-8-yl-5-(trifluoromethyl)benzenesulfonamide] yielded an IC50 of 4.8 nM.

For `CCc1cc(-c2cccc3cccnc23)cc(S(=O)(=O)N[C@@H]2C[C@H](n3cnnc3C)CC(F)(F)C2)c1` [Compound 3Da, N-[(1R,5S)-3,3-difluoro-5-(3-methyl-4H-1,2,4-triazol-4-yl)cyclohexyl]-3-ethyl-5-quinolin-8-ylbenzenesulfonamide], the IC50 was 1.8 nM.

With `O=S(=O)(N[C@H]1CCC[C@@H](n2cnnc2)C1)c1cc(OC(F)(F)F)cc(-c2ccccc2)c1` [Compound 3Ea, N-[(1S,3R)-3-(4H-1,2,4-triazol-4-yl)cyclohexyl]-5-(trifluoromethoxy)biphenyl-3-sulfonamide], the IC50 was 10 nM.

Consider `COc1ncccc1-c1cc(OC(F)(F)F)cc(S(=O)(=O)N[C@H]2CCC[C@@H](n3cnnc3)C2)c1` [Compound 3Eb, 3-(2-methoxypyridin-3-yl)-N-[(1S,3R)-3-(4H-1,2,4-triazol-4-yl)cyclohexyl]-5-(trifluoromethoxy)benzenesulfonamide], for which the IC50 was 13 nM.

`O=S(=O)(N[C@H]1CCC[C@@H](n2cnnc2)C1)c1cc(F)cc(-c2ccccc2)c1` [Compound 3Fa, 5-fluoro-N-[(1S,3R)-3-(4H-1,2,4-triazol-4-yl)cyclohexyl]biphenyl-3-sulfonamide]: the IC50 is 10 nM.

Molecule `COc1ncccc1-c1cc(F)cc(S(=O)(=O)N[C@H]2CCC[C@@H](n3cnnc3)C2)c1` [Compound 3Fb, 3-fluoro-5-(2-methoxypyridin-3-yl)-N-[(1S,3R)-3-(4H-1,2,4-triazol-4-yl)cyclohexyl]benzenesulfonamide] gave an IC50 of 9 nM.

Turning to `O=S(=O)(N[C@H]1CCC[C@@H](n2cnnc2)C1)c1cc(F)cc(-c2cccc3cccnc23)c1` [Compound 3Fc, 3-fluoro-5-quinolin-8-yl-N-[(1S,3R)-3-(4H-1,2,4-triazol-4-yl)cyclohexyl]benzenesulfonamide], the IC50 amounted to 1 nM.

`O=S(=O)(N[C@H]1CCC[C@@H](n2cnnc2)C1)c1cc(-c2cccn3cnnc23)cc(C(F)(F)F)c1` [Compound 3d] registered an IC50 of 3.1 nM.

For the molecule `CCc1cc(-n2cnnc2C)ccc1S(=O)(=O)N[C@H]1CCC[C@@H](n2cnnc2)C1` [Compound 4b, 2-ethyl-4-(3-methyl-4H-1,2,4-triazol-4-yl)-N-[(1S,3R)-3-(4H-1,2,4-triazol-4-yl)cyclohexyl]benzenesulfonamide], the IC50 was 9800 nM.

`CCc1cc(-n2cnnn2)ccc1S(=O)(=O)N[C@H]1CCC[C@@H](n2cnnc2)C1` [Compound 5a, 2-ethyl-4-(1H-tetrazol-1-yl)-N-[(1S,3R)-3-(4H-1,2,4-triazol-4-yl)cyclohexyl]benzenesulfonamide]: the IC50 amounted to 815 nM.

Molecule `CCc1cc(-n2cccn2)ccc1S(=O)(=O)N[C@H]1CCC[C@@H](n2cnnc2)C1` [Compound 6a, 2-ethyl-4-(1H-pyrazol-1-yl)-N-[(1S,3R)-3-(4H-1,2,4-triazol-4-yl)cyclohexyl]benzenesulfonamide] returned an IC50 of 68 nM.

In the case of `CCc1cc(-n2cc(C)cn2)ccc1S(=O)(=O)N[C@H]1CCC[C@@H](n2cnnc2)C1` [Compound 6b, 2-ethyl-4-(4-methyl-1H-pyrazol-1-yl)-N-[(1S,3R)-3-(4H-1,2,4-triazol-4-yl)cyclohexyl]benzenesulfonamide], the IC50 worked out at 25 nM.

In the case of `Cc1nnc(C)n1[C@@H]1CCC[C@H](NS(=O)(=O)c2c(C(C)C)cc(C(C)C)cc2C(C)C)C1` [Compound 7d, N-[(1S,3R)-3-(3,5-dimethyl-4H-1,2,4-triazol-4-yl)cyclohexyl]-2,4,6-triisopropylbenzenesulfonamide], the IC50 was determined as 9.8 nM.

For the molecule `Cc1nncn1[C@H]1C[C@@H](NS(=O)(=O)c2cc(-c3ccn[nH]3)cc(C(F)(F)F)c2)CC(F)(F)C1` [Compound 9Ae], the IC50 came to 18 nM.

`O=S(=O)(N[C@H]1CCC[C@@H](n2cnnc2)C1)c1cc(-c2ccnc3ccnn23)cc(C(F)(F)F)c1` [Compound 9c, 3-pyrazolo[1,5-a]pyrimidin-7-yl-N-[(1S,3R)-3-(4H-1,2,4-triazol-4-yl)cyclohexyl]-5-(trifluoromethyl)benzenesulfonamide] had an IC50 of 5.9 nM.
